Reference: BindingDB's records for doi:10.1074/jbc.M114.558353 (Harvard School of Public Health, 2014)

Assays:
[1] = target: Dihydroorotate dehydrogenase (quinone), mitochondrial (Homo sapiens, UniProt Q02127); assay: DHODH Biochemical Assay
[2] = target: T1, Dihydroorotate dehydrogenase (quinone), mitochondrial (Plasmodium falciparum (isolate 3D7), UniProt Q08210); assay: DHODH Biochemical Assay
T1 sequence (Q08210 whole entry): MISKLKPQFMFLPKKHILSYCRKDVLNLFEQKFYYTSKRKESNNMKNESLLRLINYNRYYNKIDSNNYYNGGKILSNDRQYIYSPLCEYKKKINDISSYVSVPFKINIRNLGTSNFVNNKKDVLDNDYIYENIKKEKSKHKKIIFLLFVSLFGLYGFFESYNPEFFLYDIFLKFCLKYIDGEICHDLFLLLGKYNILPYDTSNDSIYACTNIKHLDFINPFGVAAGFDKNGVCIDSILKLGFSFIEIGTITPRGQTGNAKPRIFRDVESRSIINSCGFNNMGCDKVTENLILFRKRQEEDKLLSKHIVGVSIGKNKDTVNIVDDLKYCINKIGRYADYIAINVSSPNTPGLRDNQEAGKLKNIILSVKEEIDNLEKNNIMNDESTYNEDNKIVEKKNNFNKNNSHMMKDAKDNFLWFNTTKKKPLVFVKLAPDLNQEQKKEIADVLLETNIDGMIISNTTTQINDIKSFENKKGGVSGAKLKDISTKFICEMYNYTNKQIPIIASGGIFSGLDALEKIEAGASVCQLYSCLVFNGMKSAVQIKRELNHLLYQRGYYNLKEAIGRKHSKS

Dihydroorotate dehydrogenase (quinone), mitochondrial (Homo sapiens, UniProt Q02127), sequence (Q02127 whole entry): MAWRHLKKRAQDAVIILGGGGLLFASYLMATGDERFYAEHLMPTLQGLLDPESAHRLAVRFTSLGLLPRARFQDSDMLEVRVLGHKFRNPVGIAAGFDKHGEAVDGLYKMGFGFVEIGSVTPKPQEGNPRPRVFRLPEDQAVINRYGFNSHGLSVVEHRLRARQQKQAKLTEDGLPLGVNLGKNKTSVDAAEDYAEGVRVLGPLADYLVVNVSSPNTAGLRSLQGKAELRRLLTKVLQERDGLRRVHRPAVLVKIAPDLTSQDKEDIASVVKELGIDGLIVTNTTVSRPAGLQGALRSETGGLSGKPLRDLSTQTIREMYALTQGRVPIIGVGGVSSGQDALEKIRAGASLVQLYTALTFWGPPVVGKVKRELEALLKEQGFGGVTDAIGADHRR

In the case of `CCOc1cccc(=O)c2c(C)n(Cc3ccc(Cl)cc3)c(C)c12` [IDI-6273], the IC50 [1] is reported as > 30 µM and the IC50 [2] is reported as 13.5 µM.
In the case of `Cc1nnc2c3ccccc3c(N3CCc4ccccc4C3)nn12` [IDI-6253], the IC50 [1] is reported as 3.8 µM and the IC50 [2] is reported as 3.5 µM.
`Cc1nc2c(C#N)cccc2n1-c1ccc(C(=O)NC2CC2)s1` was tested, and the IC50 [1] was > 30 µM and the IC50 [2] was 0.08 µM.
With `CCSc1nnc(C2CCCN(CC(=O)Nc3cc(C(F)(F)F)ccc3Cl)C2)n1CC` (stereo not drawn) [GSK3] the IC50 [1] was > 30 µM and the IC50 [2] was 1.7 µM.
